Laboratory results from ChEMBL document CHEMBL2434921, “New synthetic aliphatic sulfonamido-quaternary ammonium salts as anticancer chemotherapeutic agents” (2013).
Calls of active or inactive are those of the source. No cut-off for these calls is given here.

Columns and labels:
[1] = tested on: NCI-H23; assay: Growth inhibition of human NCI-H23 cells after 48 hrs by SRB assay; type: functional; conditions: NCI-H23, 48 h
[2] = tested on: HCT-15; assay: Growth inhibition of human HCT15 cells after 48 hrs by SRB assay; type: functional; conditions: HCT-15, 48 h
[3] = biological target: Rho-related GTP-binding protein RhoB (Homo sapiens) (UniProt P62745); assay: Transactivation of RhoB (unknown origin) transfected in human HeLa cells at 5 uM measured over 10 secs by dual luciferase reporter gene assay; type: cell-based
Sequence of Rho-related GTP-binding protein RhoB (Homo sapiens) (P62745 whole entry): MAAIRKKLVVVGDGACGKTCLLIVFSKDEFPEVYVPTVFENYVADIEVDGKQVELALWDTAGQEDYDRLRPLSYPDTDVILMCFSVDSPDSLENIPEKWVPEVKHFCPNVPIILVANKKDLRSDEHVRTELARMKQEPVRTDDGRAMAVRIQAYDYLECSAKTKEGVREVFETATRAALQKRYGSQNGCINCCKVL

[4] = tested on: NUGC-3; assay: Growth inhibition of human NUGC3 cells after 48 hrs by SRB assay; type: functional; conditions: NUGC-3, 48 h
[5] = tested on: ACHN; assay: Growth inhibition of human ACHN cells after 48 hrs by SRB assay; type: functional
[6] = tested on: MDA-MB-231; assay: Growth inhibition of human MDA-MB-231 cells after 48 hrs by SRB assay; type: functional; conditions: MDA-MB-231, 48 h
[7] = tested on: PC-3; assay: Growth inhibition of human PC3 cells after 48 hrs by SRB assay; type: functional; conditions: PC-3, 48 h
[8] = tested on: PC-3; assay: Growth of human PC3 cells at 10 uM after 48 hrs by SRB assay; conditions: PC-3, 48 h
[9] = tested on: NUGC-3; assay: Growth of human NUGC3 cells at 1 uM after 48 hrs by SRB assay; conditions: NUGC-3, 48 h
[10] = tested on: ACHN; assay: Growth of human ACHN cells at 10 uM after 48 hrs by SRB assay
[11] = tested on: HCT-15; assay: Growth of human HCT15 cells at 3 uM after 48 hrs by SRB assay; conditions: HCT-15, 48 h
[12] = tested on: ACHN; assay: Growth of human ACHN cells at 0.1 uM after 48 hrs by SRB assay
[13] = tested on: ACHN; assay: Growth of human ACHN cells at 0.3 uM after 48 hrs by SRB assay
[14] = tested on: NUGC-3; assay: Growth of human NUGC3 cells at 0.1 uM after 48 hrs by SRB assay; conditions: NUGC-3, 48 h
[15] = tested on: NUGC-3; assay: Growth of human NUGC3 cells at 0.3 uM after 48 hrs by SRB assay; conditions: NUGC-3, 48 h
[16] = tested on: HCT-15; assay: Growth of human HCT15 cells at 0.3 uM after 48 hrs by SRB assay; conditions: HCT-15, 48 h
[17] = tested on: NCI-H23; assay: Growth of human NCI-H23 cells at 10 uM after 48 hrs by SRB assay; conditions: NCI-H23, 48 h
[18] = tested on: NCI-H23; assay: Growth of human NCI-H23 cells at 0.3 uM after 48 hrs by SRB assay; conditions: NCI-H23, 48 h
[19] = tested on: MDA-MB-231; assay: Growth of human MDA-MB-231 cells at 1 uM after 48 hrs by SRB assay; conditions: MDA-MB-231, 48 h
[20] = tested on: MDA-MB-231; assay: Growth of human MDA-MB-231 cells at 10 uM after 48 hrs by SRB assay; conditions: MDA-MB-231, 48 h
[21] = tested on: MDA-MB-231; assay: Growth of human MDA-MB-231 cells at 0.1 uM after 48 hrs by SRB assay; conditions: MDA-MB-231, 48 h
[22] = tested on: MDA-MB-231; assay: Growth of human MDA-MB-231 cells at 3 uM after 48 hrs by SRB assay; values are per cent of control; conditions: MDA-MB-231, 48 h
[23] = tested on: PC-3; assay: Growth inhibition of human PC3 cells at 1 uM after 48 hrs by SRB assay; values are per cent of control; conditions: PC-3, 48 h
[24] = tested on: PC-3; assay: Growth inhibition of human PC3 cells at 3 uM after 48 hrs by SRB assay; values are per cent of control; conditions: PC-3, 48 h
[25] = tested on: ACHN; assay: Growth inhibition of human ACHN cells at 3 uM after 48 hrs by SRB assay; values are per cent of control
[26] = tested on: ACHN; assay: Growth inhibition of human ACHN cells at 1 uM after 48 hrs by SRB assay; values are per cent of control
[27] = tested on: NUGC-3; assay: Growth inhibition of human NUGC3 cells at 3 uM after 48 hrs by SRB assay; values are per cent of control; conditions: NUGC-3, 48 h
[28] = tested on: PC-3; assay: Growth inhibition of human PC3 cells at 0.1 uM after 48 hrs by SRB assay; values are per cent of control; conditions: PC-3, 48 h
[29] = tested on: PC-3; assay: Growth inhibition of human PC3 cells at 0.3 uM after 48 hrs by SRB assay; values are per cent of control; conditions: PC-3, 48 h
[30] = tested on: HCT-15; assay: Growth inhibition of human HCT15 cells at 1 uM after 48 hrs by SRB assay; values are per cent of control; conditions: HCT-15, 48 h
[31] = tested on: NUGC-3; assay: Growth inhibition of human NUGC3 cells at 10 uM after 48 hrs by SRB assay; values are per cent of control; conditions: NUGC-3, 48 h
[32] = tested on: HCT-15; assay: Growth inhibition of human HCT15 cells at 10 uM after 48 hrs by SRB assay; values are per cent of control; conditions: HCT-15, 48 h
[33] = tested on: NCI-H23; assay: Growth inhibition of human NCI-H23 cells at 1 uM after 48 hrs by SRB assay; values are per cent of control; conditions: NCI-H23, 48 h
[34] = tested on: NCI-H23; assay: Growth inhibition of human NCI-H23 cells at 3 uM after 48 hrs by SRB assay; values are per cent of control; conditions: NCI-H23, 48 h
[35] = tested on: HCT-15; assay: Growth inhibition of human HCT15 cells at 0.1 uM after 48 hrs by SRB assay; values are per cent of control; conditions: HCT-15, 48 h
[36] = tested on: NCI-H23; assay: Growth inhibition of human NCI-H23 cells at 0.1 uM after 48 hrs by SRB assay; values are per cent of control; conditions: NCI-H23, 48 h
[37] = tested on: MDA-MB-231; assay: Growth inhibition of human MDA-MB-231 cells at 0.3 uM after 48 hrs by SRB assay; values are per cent of control; conditions: MDA-MB-231, 48 h

C=CC[N+](C)(C)CCN(C)S(=O)(=O)CCCCCCCCCCCCCC
GI50 [1]: 730 nM | GI50 [2]: 1710 nM | Activity [3]: Active | GI50 [4]: 830 nM | GI50 [5]: 1390 nM | GI50 [6]: 1800 nM | GI50 [7]: 460 nM | growth, % of control at 10 µM [8]: -22.9% | growth, % of control at 1 µM [9]: 73% | growth, % of control at 10 µM [10]: -36.7% | growth, % of control at 3 µM [11]: 49.9% | growth, % of control at 0.1 µM [12]: 92.6% | growth, % of control at 0.3 µM [13]: 101% | growth, % of control at 0.1 µM [14]: 91.6% | growth, % of control at 0.3 µM [15]: 97.1% | growth, % of control at 0.3 µM [16]: 91.6% | growth, % of control at 10 µM [17]: -9.2% | growth, % of control at 0.3 µM [18]: 80.4% | growth, % of control at 1 µM [19]: 99.4% | growth, % of control at 10 µM [20]: 20.2% | growth, % of control at 0.1 µM [21]: 88% | growth, % of control at 3 µM [22]: 49.7% | growth, % of control at 1 µM [23]: 48.6% | growth, % of control at 3 µM [24]: 8.4% | growth, % of control at 3 µM [25]: 45.7% | growth, % of control at 1 µM [26]: 80.3% | growth, % of control at 3 µM [27]: 19.3% | growth, % of control at 0.1 µM [28]: 86.7% | growth, % of control at 0.3 µM [29]: 83% | growth, % of control at 1 µM [30]: 81.8% | growth, % of control at 10 µM [31]: -8.4% | growth, % of control at 10 µM [32]: 22.6% | growth, % of control at 1 µM [33]: 70.8% | growth, % of control at 3 µM [34]: 24% | growth, % of control at 0.1 µM [35]: 90.5% | growth, % of control at 0.1 µM [36]: 78.2% | growth, % of control at 0.3 µM [37]: 107%

C=CC[N+](CC)(CC)CCN(C)S(=O)(=O)CCCCCCCCCCCCCC
GI50 [1]: 300 nM | GI50 [2]: 2030 nM | Activity [3]: Active | GI50 [4]: 210 nM | GI50 [5]: 1350 nM | GI50 [6]: 710 nM | GI50 [7]: 530 nM | growth, % of control at 10 µM [8]: 4.6% | growth, % of control at 1 µM [9]: 14.3% | growth, % of control at 10 µM [10]: 20.3% | growth, % of control at 3 µM [11]: 62.9% | growth, % of control at 0.1 µM [12]: 92.8% | growth, % of control at 0.3 µM [13]: 90.5% | growth, % of control at 0.1 µM [14]: 79.1% | growth, % of control at 0.3 µM [15]: 70.5% | growth, % of control at 0.3 µM [16]: 93.9% | growth, % of control at 10 µM [17]: -5.7% | growth, % of control at 0.3 µM [18]: 76.5% | growth, % of control at 1 µM [19]: 54.3% | growth, % of control at 10 µM [20]: 14.5% | growth, % of control at 0.1 µM [21]: 89.6% | growth, % of control at 3 µM [22]: 32.2% | growth, % of control at 1 µM [23]: 46.2% | growth, % of control at 3 µM [24]: 22.7% | growth, % of control at 3 µM [25]: 46.6% | growth, % of control at 1 µM [26]: 73.4% | growth, % of control at 3 µM [27]: -2.9% | growth, % of control at 0.1 µM [28]: 91.5% | growth, % of control at 0.3 µM [29]: 89.8% | growth, % of control at 1 µM [30]: 85.1% | growth, % of control at 10 µM [31]: -6.4% | growth, % of control at 10 µM [32]: 19.2% | growth, % of control at 1 µM [33]: 31.1% | growth, % of control at 3 µM [34]: 10% | growth, % of control at 0.1 µM [35]: 91.8% | growth, % of control at 0.1 µM [36]: 82.2% | growth, % of control at 0.3 µM [37]: 87.4%

CCCCCCCCCCCCCCCCS(=O)(=O)N(C)CCC[N+](C)(C)C
GI50 [1]: 910 nM | GI50 [2]: 780 nM | Activity [3]: Active | GI50 [4]: 210 nM | GI50 [5]: 1000 nM | GI50 [6]: 1040 nM | GI50 [7]: 440 nM | growth, % of control at 10 µM [8]: -54.1% | growth, % of control at 1 µM [9]: 25% | growth, % of control at 10 µM [10]: -31.4% | growth, % of control at 3 µM [11]: 26.7% | growth, % of control at 0.1 µM [12]: 96.7% | growth, % of control at 0.3 µM [13]: 97.6% | growth, % of control at 0.1 µM [14]: 91.8% | growth, % of control at 0.3 µM [15]: 59.1% | growth, % of control at 0.3 µM [16]: 104% | growth, % of control at 10 µM [17]: -10.4% | growth, % of control at 0.3 µM [18]: 97.3% | growth, % of control at 1 µM [19]: 66.5% | growth, % of control at 10 µM [20]: 8.8% | growth, % of control at 0.1 µM [21]: 97.6% | growth, % of control at 3 µM [22]: 39.2% | growth, % of control at 1 µM [23]: 31.5% | growth, % of control at 3 µM [24]: -24.5% | growth, % of control at 3 µM [25]: 36.3% | growth, % of control at 1 µM [26]: 72.2% | growth, % of control at 3 µM [27]: -22.4% | growth, % of control at 0.1 µM [28]: 101% | growth, % of control at 0.3 µM [29]: 91% | growth, % of control at 1 µM [30]: 57% | growth, % of control at 10 µM [31]: -40.9% | growth, % of control at 10 µM [32]: 8.7% | growth, % of control at 1 µM [33]: 72.7% | growth, % of control at 3 µM [34]: 26.5% | growth, % of control at 0.1 µM [35]: 100% | growth, % of control at 0.1 µM [36]: 94.9% | growth, % of control at 0.3 µM [37]: 92.3%
